Measurements reported in BindingDB's records for doi:10.1021/bi301387m (University of Auckland, 2013).

Target: T1, Anthranilate phosphoribosyltransferase (Mycobacterium tuberculosis (strain CDC 1551 / Oshkosh), UniProt P9WFX4)
T1 sequence (P9WFX4 whole entry): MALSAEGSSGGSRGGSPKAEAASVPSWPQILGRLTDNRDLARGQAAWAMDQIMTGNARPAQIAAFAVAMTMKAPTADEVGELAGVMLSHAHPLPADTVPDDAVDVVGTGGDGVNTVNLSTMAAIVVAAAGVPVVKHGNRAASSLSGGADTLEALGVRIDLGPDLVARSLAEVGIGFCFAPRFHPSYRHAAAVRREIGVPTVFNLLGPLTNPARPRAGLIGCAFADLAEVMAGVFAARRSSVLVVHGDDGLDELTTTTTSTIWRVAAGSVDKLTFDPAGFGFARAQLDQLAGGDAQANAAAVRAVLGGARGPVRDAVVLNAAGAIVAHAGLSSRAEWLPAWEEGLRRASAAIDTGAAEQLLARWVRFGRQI
Test: Fluoresence-based Assay
Description: An enzyme-coupled absorbance-based assay developed in house was used to determine the inhibitor-enzyme kinetic parameters of Mtb-AnPRT, including ki values for the inhibitors.

| Compound | Ki [µM] |
| --- | --- |
| NC(CCCNc1ccc([N+](=O)[O-])cc1[N+](=O)[O-])CC(=O)O (configuration not stated) [ACS No 165] | 79 |
| COc1ccc(C(=O)O)cc1N [ACS No 126] | 60 |
